Laboratory results from paper PMC3140712 (2011).
Structures can show the parent of a compound that is named as a salt.

Target: P2Y1 receptor (Homo sapiens, UniProt P47900)
Experiment: intracellular calcium mobilization
Type: cell-based

P2Y1 receptor, sequence (P47900 whole entry): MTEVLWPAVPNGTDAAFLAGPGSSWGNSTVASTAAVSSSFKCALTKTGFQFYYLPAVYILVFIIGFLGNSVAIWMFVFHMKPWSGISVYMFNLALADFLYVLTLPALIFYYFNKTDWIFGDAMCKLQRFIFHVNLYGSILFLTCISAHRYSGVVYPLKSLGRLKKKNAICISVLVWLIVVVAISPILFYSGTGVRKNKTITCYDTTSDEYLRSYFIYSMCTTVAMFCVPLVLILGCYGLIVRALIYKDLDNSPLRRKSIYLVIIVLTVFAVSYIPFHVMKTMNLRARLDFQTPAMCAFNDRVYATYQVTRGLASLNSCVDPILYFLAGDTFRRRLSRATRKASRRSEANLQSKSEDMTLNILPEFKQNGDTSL

Compound: CSc1nc(N)c2ncn([C@H]3[C@H](O)[C@H](O)[C@]4(COP(=O)(O)OP(=O)(O)O)C[C@H]34)c2n1 [MRS2365, [[(1R,2R,3S,4R,5S)-4-[6-amino-2-(methylthio)-9H-purin-9-yl]-2,3-dihydroxybicyclo[3.1.0]hex-1-yl]methyl] diphosphoric acid mono ester trisodium salt]
- EC50: 5.28 ± 1.96 nM
